Test results published in patent US20050197350A1, “Novel quinoline, tetrahydroquinazoline, and pyrimidine derivatives and methods of treatment related to the use thereof” (TAISHO PHARMACEUTICAL CO., LTD., priority 2003, published 2005).

Tested on: MCH receptors
Experiment: MCH receptor activity class (method not given)
Settings: MCH receptor; class by percent of control at 10^-7 M or IC50

With CN(C)c1nc(N[C@H]2CC[C@@H](NC(=S)Nc3cc(F)ccc3F)CC2)nc2c1CCCC2 [compound 1935] as the molecule, how does the class read?
Its class is 3 (Class 3 The value of percent of control at 10^−7 M was more than 60% or the value of IC50 was more than 200 nM.).

For CN(C)c1cc(N[C@H]2CC[C@@H](CNC(=O)CC3CCCC3)CC2)nc2ccccc12 [compound 202], which class is on record?
The class was 3 (Class 3 The value of percent of control at 10^−7 M was more than 60% or the value of IC50 was more than 200 nM.).

Which class does the source give for CN(C)c1nc(N[C@H]2CC[C@@H](NC(=S)Nc3cc([N+](=O)[O-])ccc3Cl)CC2)nc2c1CCCC2 [compound 2035] here?
Its class is 3 (Class 3 The value of percent of control at 10^−7 M was more than 60% or the value of IC50 was more than 200 nM.).

How did the class turn out when CN(C)c1cc(N[C@H]2CC[C@@H](NC(=O)c3cccc(C(F)(F)F)c3)CC2)nc2ccccc12 [compound 116] was run?
Its class is 3 (Class 3 The value of percent of control at 10^−7 M was more than 60% or the value of IC50 was more than 200 nM.).

How did the class turn out when CN(C)c1cc(N[C@H]2CC[C@@H](NC(=O)c3ccc(C(F)(F)F)cc3)CC2)nc2ccccc12 [compound 117] was run?
The class was 3 (Class 3 The value of percent of control at 10^−7 M was more than 60% or the value of IC50 was more than 200 nM.).

Same assay, conditions: activity class 1-3: percent of control at 10^-7 M or IC50

With CC(C)[C@@H]1CC[C@@H](C)C[C@H]1OC(=O)NC[C@H]1CC[C@@H](Nc2cc(N(C)C)c3ccccc3n2)CC1 [compound 1573] as the molecule, how does the class read?
The class was 3 (Class 3 The value of percent of control at 10^−7 M was more than 60% or the value of IC50 was more than 200 nM.).

With CCCCCCCCOC(=O)N[C@H]1CC[C@@H](Nc2nccc(N(C)C)n2)CC1 [compound 1626] as the molecule, how does the class read?
Its class is 3 (Class 3 The value of percent of control at 10^−7 M was more than 60% or the value of IC50 was more than 200 nM.).

Same assay, conditions: activity class per percent of control at 10^-7 M or IC50

With COc1ccc(CN[C@H]2CC[C@@H](Nc3cc(N(C)C)c4ccccc4n3)CC2)c2ccccc12 [compound 1089] as the molecule, how does the class read?
Its class is 3 (Class 3 The value of percent of control at 10^−7 M was more than 60% or the value of IC50 was more than 200 nM.).

For C[C@@H](c1ccccc1)N(C(=O)c1ccccc1C(=O)N[C@H]1CC[C@@H](Nc2nc3c(c(N(C)C)n2)CCCC3)CC1)[C@@H](C)c1ccccc1 [compound 1015], which class is on record?
Its class is 1 (Class 1: The value of percent of control at 10^−7 M was less than 40% or the value of IC50 was less than 50 nM.).

How did the class turn out when COc1ccc2ccccc2c1CNC[C@H]1CC[C@@H](Nc2cc(N(C)C)c3ccccc3n2)CC1 [compound 1128] was run?
Its class is 3 (Class 3 The value of percent of control at 10^−7 M was more than 60% or the value of IC50 was more than 200 nM.).

Same assay, conditions: class 1-3 by percent of control at 10^-7 M or IC50

Which class does the source give for Cc1cc(C(=O)N[C@H]2CC[C@@H](Nc3nc4c(c(N(C)C)n3)CCCC4)CC2)n(C)n1 [compound 539] here?
Its class is 2 (Class 2: The value of percent of control at 10^−7 M was from 40% to 60% or the value of IC′50 was from 50 nM to 200 nM.).

Which class does the source give for CCCSc1ncccc1C(=O)NC[C@H]1CC[C@@H](Nc2nccc(N(C)C)n2)CC1 [compound 429] here?
The class was 2 (Class 2: The value of percent of control at 10^−7 M was from 40% to 60% or the value of IC′50 was from 50 nM to 200 nM.).

Same assay, conditions: class by percent of control at 10^-7 M or IC50

With CN(C)c1ccnc(N[C@H]2CC[C@@H](NC(=O)Nc3ccccc3C(C)(C)C)CC2)n1 [compound 2204] as the molecule, how does the class read?
The class was 3 (Class 3 The value of percent of control at 10^−7 M was more than 60% or the value of IC50 was more than 200 nM.).

Which class does the source give for CN(C)c1cc(N[C@H]2CC[C@@H](NC(=O)Nc3ccccc3[N+](=O)[O-])CC2)nc2ccccc12 [compound 2147] here?
Its class is 3 (Class 3 The value of percent of control at 10^−7 M was more than 60% or the value of IC50 was more than 200 nM.).

For COc1cc(OC)c(CNC[C@H]2CC[C@@H](Nc3nc4c(c(N(C)C)n3)CCCC4)CC2)c(OC)c1 [compound 1403], which class is on record?
Its class is 1 (Class 1: The value of percent of control at 10^−7 M was less than 40% or the value of IC50 was less than 50 nM.).

With COc1cc(C(=O)NC[C@H]2CC[C@@H](Nc3cc(N(C)C)c4ccccc4n3)CC2)ccc1[N+](=O)[O-] [compound 804, N-[(cis-4-{[4-(dimethylamino)quinolin-2-yl]amino}cyclohexyl)methyl]-3-methoxy-4-nitrobenzamide] as the molecule, how does the class read?
The class was 3 (Class 3 The value of percent of control at 10^−7 M was more than 60% or the value of IC50 was more than 200 nM.).

With Cc1cccc(NC(=O)N[C@H]2CC[C@@H](Nc3nccc(N(C)C)n3)CC2)c1C [compound 2216] as the molecule, how does the class read?
Its class is 3 (Class 3 The value of percent of control at 10^−7 M was more than 60% or the value of IC50 was more than 200 nM.).

Which class does the source give for CSc1sc(C(=O)N[C@H]2CC[C@@H](Nc3nccc(N(C)C)n3)CC2)c(Cl)c1S(=O)(=O)C(C)C [compound 904, 3-chloro-N-(cis-4-{[4-(dimethylamino)pyrimidin-2-yl]amino}cyclohexyl)-4-(isopropylsulfonyl)-5-(methylthio)thiophene-2-carboxamide] here?
Its class is 2 (Class 2: The value of percent of control at 10^−7 M was from 40% to 60% or the value of IC′50 was from 50 nM to 200 nM.).

Cc1ccc(Cl)c(NC(=O)N[C@H]2CC[C@@H](Nc3nc4c(c(N(C)C)n3)CCCC4)CC2)c1 [compound 1856] was tested. Which class did it give?
The class was 3 (Class 3 The value of percent of control at 10^−7 M was more than 60% or the value of IC50 was more than 200 nM.).

For CN(C)c1nc(N[C@H]2CC[C@@H](NC(=O)Nc3ccc(SC(F)(F)F)cc3)CC2)nc2c1CCCC2 [compound 1879], which class is on record?
Its class is 3 (Class 3 The value of percent of control at 10^−7 M was more than 60% or the value of IC50 was more than 200 nM.).

With C[C@H](NC(=O)c1ccccc1C(=O)N[C@H]1CC[C@@H](Nc2nccc(N(C)C)n2)CC1)c1ccccc1 [compound 897] as the molecule, how does the class read?
The class was 3 (Class 3 The value of percent of control at 10^−7 M was more than 60% or the value of IC50 was more than 200 nM.).

How did the class turn out when CC(C(=O)N[C@H]1CC[C@@H](Nc2cc(N(C)C)c3ccccc3n2)CC1)c1ccc(-c2ccccc2)c(F)c1 (relative stereo) [compound 708] was run?
The class was 3 (Class 3 The value of percent of control at 10^−7 M was more than 60% or the value of IC50 was more than 200 nM.).

How did the class turn out when Cc1cc(CN[C@H]2CC[C@@H](Nc3nc4c(c(N(C)C)n3)CCCC4)CC2)c(C)n1-c1ccccc1 [compound 1351] was run?
The class was 3 (Class 3 The value of percent of control at 10^−7 M was more than 60% or the value of IC50 was more than 200 nM.).

With CN(C)c1nc(N[C@H]2CC[C@@H](NCc3cncc(-c4ccc(F)cc4)c3)CC2)nc2c1CCCC2 [compound 1356] as the molecule, how does the class read?
Its class is 3 (Class 3 The value of percent of control at 10^−7 M was more than 60% or the value of IC50 was more than 200 nM.).

Same assay, conditions: class by percent of control at 10^−7 M or IC50

Cc1nc(N[C@H]2CC[C@@H](NC(=O)c3cccc(C#N)c3)CC2)nc(N(C)C)c1C [compound 2836, 3-cyano-N-(cis-4-{[4-(dimethylamino)-5,6-dimethylpyrimidin-2-yl]amino}cyclohexyl)benzamide] was tested. Which class did it give?
Its class is 1 (Class 1: The value of percent of control at 10^−7 M was less than 40% or the value of IC50 was less than 50 nM.).

With COc1cc(OC)cc(C(=O)N[C@H]2CC[C@@H](CNc3nc(C)cc(N(C)C)n3)CC2)c1 [compound 2736] as the molecule, how does the class read?
Its class is 3 (Class 3 The value of percent of control at 10^−7 M was more than 60% or the value of IC50 was more than 200 nM.).

COc1cc(OC)cc(C(=O)N[C@H]2CC[C@@H](Nc3nc(C)c(C)c(N(C)C)n3)CC2)c1 [compound 2840, N-(cis-4-{[4-(dimethylamino)-5,6-dimethylpyrimidin-2-yl]amino}cyclohexyl)-3,5-dimethoxybenzamide] was tested. Which class did it give?
The class was 1 (Class 1: The value of percent of control at 10^−7 M was less than 40% or the value of IC50 was less than 50 nM.).
